Data from patent US10770169B2, “Method of providing a treatment to a subject based on a dynamic pathway map” (THE REGENTS OF THE UNIVERSITY OF CALIFORNIA, priority 2010, dated 2020).
Read-outs that look alike come from different tables or passages of the source.

Key:
[1] = system: luminal, basal, claudin-low and ERBB2AMP breast cancer cell lines; experiment: Associations of clinically relevant subtypes and response (non-parametric ANOVA or t-test on GI50 ranks); type: cell-based, human; settings: Table 6; most sensitive subtype, FDR p<0.20
Procedure, shortened: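 Significance was set at FDR p<0.20 after combining p-values across three test sets. Subtype–response associations came from rank-based non-parametric ANOVA or t-tests on GI50. For three-class comparisons, post-hoc tests of each group against the rest identified the most sensitive group, with FDR correction.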

[2] = system: panel of 55 breast cancer cell lines; experiment: Cell growth inhibition assay (Cell Titer Glo, 72 h, 9 doses; GI50, TGI, LC50); type: cell-based, human

## NC(=O)Nc1sc(-c2ccc(F)cc2)cc1C(N)=O [TPCA-1]
[1]
  Subtype specificity: Basal + Claudin-low
[2]; BT20 cell line, censored GI50 values, value is the negative log10 of mol/L
  GI50: 4.36
[2]; HCC38 cell line, censored GI50 values, value is the negative log10 of mol/L
  GI50: 5.50
[2]; HCC70 cell line, censored GI50 values, value is the negative log10 of mol/L
  GI50: 5.44
[2]; HCC1143 cell line, censored GI50 values, value is the negative log10 of mol/L
  GI50: 5.07
[2]; HCC1187 cell line, censored GI50 values, value is the negative log10 of mol/L
  GI50: 5.67
[2]; HCC1395 cell line, censored GI50 values, value is the negative log10 of mol/L
  GI50: 5.22
[2]; HCC1419 cell line, censored GI50 values, value is the negative log10 of mol/L
  GI50: 5.53
[2]; HCC1428 cell line, censored GI50 values, value is the negative log10 of mol/L
  GI50: 5.45
[2]; HCC1500 cell line, censored GI50 values, value is the negative log10 of mol/L
  GI50: 5.39
[2]; HCC1806 cell line, censored GI50 values, value is the negative log10 of mol/L
  GI50: 5.34
[2]; HCC1954 cell line, censored GI50 values, value is the negative log10 of mol/L
  GI50: 4.77
[2]; HCC2185 cell line, censored GI50 values, value is the negative log10 of mol/L
  GI50: 5.36
[2]; HCC3153 cell line, censored GI50 values, value is the negative log10 of mol/L
  GI50: 4.87
[2]; LY2 cell line, censored GI50 values, value is the negative log10 of mol/L
  GI50: 4.54
[2]; MDAMB134VI cell line, censored GI50 values, value is the negative log10 of mol/L
  GI50: 4.79
[2]; MDAMB231 cell line, censored GI50 values, value is the negative log10 of mol/L
  GI50: 4.45
[2]; MDAMB361 cell line, censored GI50 values, value is the negative log10 of mol/L
  GI50: 4.18
[2]; MDAMB436 cell line, censored GI50 values, value is the negative log10 of mol/L
  GI50: 5.16
[2]; MDAMB468 cell line, censored GI50 values, value is the negative log10 of mol/L
  GI50: 5.94
[2]; SUM52PE cell line, censored GI50 values, value is the negative log10 of mol/L
  GI50: 6.25
[2]; SUM149PT cell line, censored GI50 values, value is the negative log10 of mol/L
  GI50: 5.78
[2]; SUM159PT cell line, censored GI50 values, value is the negative log10 of mol/L
  GI50: 5.81
[2]; SUM1315MO2 cell line, censored GI50 values, value is the negative log10 of mol/L
  GI50: 6.09
[2]; UACC893 cell line, censored GI50 values, value is the negative log10 of mol/L
  GI50: 5.21
[2]; cell line 600MPE, value is the negative log10 of mol/L
  GI50: 4.18
[2]; cell line AU565, value is the negative log10 of mol/L
  GI50: 4.18
[2]; cell line BT20, value is the negative log10 of mol/L
  GI50: 4.36
[2]; cell line BT474, value is the negative log10 of mol/L
  GI50: 4.18
[2]; cell line BT549, value is the negative log10 of mol/L
  GI50: 4.18
[2]; cell line HCC38, value is the negative log10 of mol/L
  GI50: 5.50
[2]; cell line HCC70, value is the negative log10 of mol/L
  GI50: 5.44
[2]; cell line HCC202, value is the negative log10 of mol/L
  GI50: 3.88
[2]; cell line HCC1143, value is the negative log10 of mol/L
  GI50: 5.07
[2]; cell line HCC1187, value is the negative log10 of mol/L
  GI50: 5.67
[2]; cell line HCC1395, value is the negative log10 of mol/L
  GI50: 5.22
[2]; cell line HCC1419, value is the negative log10 of mol/L
  GI50: 5.53
[2]; cell line HCC1428, value is the negative log10 of mol/L
  GI50: 5.45
[2]; cell line HCC1500, value is the negative log10 of mol/L
  GI50: 5.39
[2]; cell line HCC1806, value is the negative log10 of mol/L
  GI50: 5.34
[2]; cell line HCC1937, value is the negative log10 of mol/L
  GI50: 4.18
[2]; cell line HCC1954, value is the negative log10 of mol/L
  GI50: 4.77
[2]; cell line HCC2185, value is the negative log10 of mol/L
  GI50: 5.36
[2]; cell line HCC3153, value is the negative log10 of mol/L
  GI50: 4.87
[2]; cell line LY2, value is the negative log10 of mol/L
  GI50: 4.54

## CC/C(=C(\c1ccccc1)c1ccc(OCCN(C)C)cc1)c1ccccc1 [Tamoxifen]
[1]
  Subtype specificity: Luminal
[2]; Homo sapiens, 600MPE cell line, censored GI50 values, read-out: GI50 (converted)
  GI50: 47.9 µM
[2]; Homo sapiens, AU565, AU565 cell line, censored GI50 values, read-out: GI50 (converted)
  GI50: 28.8 µM
[2]; Homo sapiens, AU565, cell line AU565, read-out: GI50 (converted)
  GI50: 28.8 µM
[2]; Homo sapiens, BT-474, BT474 cell line, censored GI50 values, read-out: GI50 (converted)
  GI50: 2.4 µM
[2]; Homo sapiens, BT-474, cell line BT474, read-out: GI50 (converted)
  GI50: 2.4 µM
[2]; Homo sapiens, BT-483, BT483 cell line, censored GI50 values, read-out: GI50 (converted)
  GI50: 24 µM
[2]; Homo sapiens, BT-483, cell line BT483, read-out: GI50 (converted)
  GI50: 24 µM
[2]; Homo sapiens, BT-549, cell line BT549, read-out: GI50 (converted)
  GI50: 166 µM
[2]; Homo sapiens, CAMA-1, CAMA1 cell line, censored GI50 values, read-out: GI50 (converted)
  GI50: 34.7 µM
[2]; Homo sapiens, CAMA-1, cell line CAMA1, read-out: GI50 (converted)
  GI50: 34.7 µM
[2]; Homo sapiens, HCC38, HCC38 cell line, censored GI50 values, read-out: GI50 (converted)
  GI50: 52.5 µM
[2]; Homo sapiens, HCC38, cell line HCC38, read-out: GI50 (converted)
  GI50: 52.5 µM
[2]; Homo sapiens, HCC70, cell line HCC70, read-out: GI50 (converted)
  GI50: 166 µM
[2]; Homo sapiens, HCC202, HCC202 cell line, censored GI50 values, read-out: GI50 (converted)
  GI50: 29.5 µM
[2]; Homo sapiens, HCC202, cell line HCC202, read-out: GI50 (converted)
  GI50: 29.5 µM
[2]; Homo sapiens, HCC1143, HCC1143 cell line, censored GI50 values, read-out: GI50 (converted)
  GI50: 16.2 µM
[2]; Homo sapiens, HCC1143, cell line HCC1143, read-out: GI50 (converted)
  GI50: 16.2 µM
[2]; Homo sapiens, HCC1395, HCC1395 cell line, censored GI50 values, read-out: GI50 (converted)
  GI50: 14.5 µM
[2]; Homo sapiens, HCC1395, cell line HCC1395, read-out: GI50 (converted)
  GI50: 14.5 µM
[2]; Homo sapiens, HCC1419, HCC1419 cell line, censored GI50 values, read-out: GI50 (converted)
  GI50: 33.1 µM
[2]; Homo sapiens, HCC1419, cell line HCC1419, read-out: GI50 (converted)
  GI50: 33.1 µM
[2]; Homo sapiens, HCC1428, HCC1428 cell line, censored GI50 values, read-out: GI50 (converted)
  GI50: 3.24 µM
[2]; Homo sapiens, HCC1428, cell line HCC1428, read-out: GI50 (converted)
  GI50: 3.24 µM
[2]; Homo sapiens, HCC1500, HCC1500 cell line, censored GI50 values, read-out: GI50 (converted)
  GI50: 105 µM
[2]; Homo sapiens, HCC1500, cell line HCC1500, read-out: GI50 (converted)
  GI50: 105 µM
[2]; Homo sapiens, HCC1806, HCC1806 cell line, censored GI50 values, read-out: GI50 (converted)
  GI50: 13.2 µM
[2]; Homo sapiens, HCC1806, cell line HCC1806, read-out: GI50 (converted)
  GI50: 13.2 µM
[2]; Homo sapiens, HCC1937, cell line HCC1937, read-out: GI50 (converted)
  GI50: 166 µM
[2]; Homo sapiens, HCC1954, HCC1954 cell line, censored GI50 values, read-out: GI50 (converted)
  GI50: 97.7 µM
[2]; Homo sapiens, HCC1954, cell line HCC1954, read-out: GI50 (converted)
  GI50: 97.7 µM
[2]; Homo sapiens, HCC2185 cell line, censored GI50 values, read-out: GI50 (converted)
  GI50: 14.1 µM
[2]; Homo sapiens, LY2 cell line, censored GI50 values, read-out: GI50 (converted)
  GI50: 56.2 µM
[2]; Homo sapiens, MCF7, MCF7 cell line, censored GI50 values, read-out: GI50 (converted)
  GI50: 102 µM
[2]; Homo sapiens, MCF7, cell line MCF7, read-out: GI50 (converted)
  GI50: 102 µM
[2]; Homo sapiens, MDA-MB-134-VI, MDAMB134VI cell line, censored GI50 values, read-out: GI50 (converted)
  GI50: 83.2 µM
[2]; Homo sapiens, MDA-MB-175-VII, MDAMB175VII cell line, censored GI50 values, read-out: GI50 (converted)
  GI50: 14.5 µM
[2]; Homo sapiens, MDA-MB-415, MDAMB415 cell line, censored GI50 values, read-out: GI50 (converted)
  GI50: 33.9 µM
[2]; Homo sapiens, MDA-MB-436, MDAMB436 cell line, censored GI50 values, read-out: GI50 (converted)
  GI50: 30.9 µM
[2]; Homo sapiens, MDA-MB-453, MDAMB453 cell line, censored GI50 values, read-out: GI50 (converted)
  GI50: 36.3 µM
[2]; Homo sapiens, SK-BR-3, SKBR3 cell line, censored GI50 values, read-out: GI50 (converted)
  GI50: 105 µM
[2]; Homo sapiens, SUM52PE, SUM52PE cell line, censored GI50 values, read-out: GI50 (converted)
  GI50: 91.2 µM
[2]; Homo sapiens, SUM149PT, SUM149PT cell line, censored GI50 values, read-out: GI50 (converted)
  GI50: 102 µM
[2]; Homo sapiens, SUM185PE, SUM185PE cell line, censored GI50 values, read-out: GI50 (converted)
  GI50: 8.91 µM
[2]; Homo sapiens, SUM1315MO2, SUM1315MO2 cell line, censored GI50 values, read-out: GI50 (converted)
  GI50: 100 µM
[2]; Homo sapiens, UACC-893, UACC893 cell line, censored GI50 values, read-out: GI50 (converted)
  GI50: 3.09 µM
[2]; Homo sapiens, ZR-75B, ZR75B cell line, censored GI50 values, read-out: GI50 (converted)
  GI50: 16.2 µM
[2]; Homo sapiens, cell line 600MPE, read-out: GI50 (converted)
  GI50: 47.9 µM
[2]; Homo sapiens, cell line HCC2185, read-out: GI50 (converted)
  GI50: 14.1 µM
[2]; Homo sapiens, cell line HCC3153, read-out: GI50 (converted)
  GI50: 166 µM
[2]; Homo sapiens, cell line LY2, read-out: GI50 (converted)
  GI50: 56.2 µM
